Literature values as cited in patent US20050123612A1, “Ribavirin granulate for producing coated tablets” (priority 2001, published 2005).

System: embryo development
Details: animal experiments; in particular first six weeks of embryo development

SMILES: NC(=O)c1ncn([C@@H]2O[C@H](CO)[C@@H](O)[C@H]2O)n1 [ribavirin, 1-β-D-Ribafuranosyl-1,2,4-triazole-3-carboxamide]
- teratogenicity: teratogenic
